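Five compound concentrations were applied to cells in 96-well plates for 48 hours; endpoints were derived by simple linear interpolation of the resulting dose-response curve. At the GI50, growth is halved. TGI: total growth inhibition.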
How the values were obtained:
Test in all cases: growth of human tumour cells (NCI), 48 h
[1] = system: A498 renal
[2] = system: HCT-15 colon
[3] = system: RPMI-8226 leukemia
[4] = system: SW-620 colon
[5] = system: DLD-1 colon
[6] = system: DMS 114 small cell lung
[7] = system: HOP-18 NSCLC
[8] = system: HT29 colon
[9] = system: NCI-H460 lung
[10] = system: SNB-78 CNS
[11] = system: XF 498 CNS
[12] = system: MALME-3M melanoma
[13] = system: MDA-N

SMILES | GI50 [1] [µM] | TGI [1] [µM] | GI50 [2] [µM] | TGI [2] [µM] | GI50 [3] [µM] | TGI [3] [µM] | GI50 [4] [µM] | TGI [4] [µM] | TGI [5] [µM] | TGI [6] [µM] | TGI [7] [µM] | TGI [8] [µM] | TGI [9] [µM] | TGI [10] [µM] | TGI [11] [µM] | TGI [12] [µM] | TGI [13] [µM] | GI50 [8] [µM] | GI50 [12] [µM] | GI50 [9] [µM]
Cc1ccc2[nH]cc(-c3nc(-c4c[nH]c5ncccc45)cs3)c2c1 | 3.11 | > 100 | > 100 | > 100 | > 100 | > 100 | > 100 | > 100 |  |  |  |  |  |  |  |  |  |  |  | 
O=C1C(Br)=CC2([N+](=O)[O-])CCNc3c(O)c4c5c(c3C2=C1Br)=NCCC=5C=N4 (configuration not stated) |  | 14.5 |  | 2.16 |  | 0.761 |  | 4 | 1.49 | 0.545 | 27.5 | 7.24 | 12.1 | 5.48 | 5.48 |  |  |  |  | 
COc1ccc2[nH]c(C(=O)N3CC(CCl)c4ccc(N)cc43)cc2c1 (configuration not stated) |  |  |  | > 50.4 |  | > 35.4 |  | > 100 |  |  |  | 0.508 | 3.24 |  |  | 0.302 | 0.347 |  |  | 
CC(=O)O[C@H]1CC[C@@]2(C)C(=CC[C@@H]3[C@@H]2CC[C@]2(C)C(c4cccnc4)=CC[C@@H]32)C1 | 10.4 | 74 | 4.48 | > 100 | 2.81 | 8.07 | 5.81 | > 100 |  |  |  | 12.7 | > 100 |  |  | 33.9 |  | 3.07 | 3.24 | 5.91
N/N=C(\C(=O)Nc1c(Cl)cc([N+](=O)[O-])cc1Cl)C(c1cnc2ccc([N+](=O)[O-])cc2n1)[N+](=O)[O-] (configuration not stated) |  | > 100 |  | > 100 |  | > 100 |  | > 100 | > 100 | > 100 |  | > 100 | > 100 | > 100 | > 100 |  |  |  |  | 
CC(=O)OC(Cc1cc(C=C(C(F)(F)F)C(F)(F)F)cc(C)n1)(C(F)(F)F)C(F)(F)F |  | 3.3 |  | > 100 |  | 4.56 |  | 5.67 |  |  |  | 5.32 | 5.09 |  |  | > 20.8 |  |  |  | 
CCCC/C=C1\CCC(CN2CCCCC2)C1=O (configuration not stated) |  | 31.6 |  | 20.6 |  |  |  | 14.4 | 3.25 | 16.1 | 16.8 | 23.7 | 55.5 | 27.4 | 6.58 | 15.4 | > 100 |  |  | 
COC(=O)/C=C\Sc1ccn(/C=C\C(=O)OC)c(=S)n1 |  | 35.6 |  | 42.6 |  | > 100 |  | 56.5 |  |  |  | 52.9 |  |  |  | 53.9 | > 100 |  |  | 
COc1ccc2c3c1OC1CC(O)C=CC31CCN(C)C2 (configuration not stated) |  | > 150 |  | > 150 |  | > 150 |  | > 150 | > 54.1 | > 150 | > 150 | > 150 | > 150 | > 117 | > 150 | > 150 |  |  |  | 
CN(C)c1ccc(N2C(=S)SC(=Nc3ccccc3)C2=Nc2ccccc2)cc1 |  | > 100 |  | > 100 |  | > 100 |  |  |  |  |  |  | > 100 |  |  | > 100 | > 100 |  |  | 
O=C(Nc1ccccc1F)c1c(O)nc2sccn2c1=O |  | > 10 |  | > 10 |  | > 10 |  | > 10 |  |  |  | > 10 | > 10 |  |  | > 10 | > 10 |  |  | 

Reference: PubChem BioAssay (NCI)
